The values below come from PubChem BioAssay AID179 (DTP/NCI, 2004).

SMILES strings stand for the structures. The source made the active and inactive calls.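 The calls were made as follows: active = compounds giving half or more protection of infected cells from virus-caused growth loss, again on retest; inactive = the rest.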

The test system of the assay is CEM cells HIV-1 protection, formazan growth assay. Description: NCI AIDS Antiviral Assay. The following applies: for IC50: measured here: growth of uninfected CEM cells. The essentials:
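Screen of anti-HIV-1 activity in human CEM cells using a formazan-based growth measurement at five drug concentrations. Hits with 50% or greater protection were repeated, and confirmation required reproducible complete protection.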

As to `O=c1[nH][nH]c(=O)c2nc(Nc3ccco3)ncc12`, the EC50 (usually the midpoint of the concentration-response curve) was > 240 µM and the IC50 (in general, the concentration needed to halve the response being measured) was > 240 µM.

Regarding `NCCCCN(CCCN)/[N+]([O-])=N\O`, the EC50 is > 7590 µM and the IC50 is 91.2 µM.

As for `CCCCCCCCCCCCOC1OC(CO)C(O)C(O)C1O` (stereo not drawn), the EC50 is > 85.1 µM and the IC50 amounted to 38 µM.

In the case of `COc1ccc2c(c1)CCN1CCc3ccccc3CC21` (stereo not drawn), the EC50 is > 200 µM and the half-maximal inhibitory concentration (IC50) was 53.7 µM.

Regarding `COC(=O)[C@]12CSC[C@H]1C[C@H](c1cccc3ccccc13)N2`, the EC50 was > 200 µM and the IC50 was > 200 µM.

On to `CN(C)CCCNC(=O)c1cc(NC(=O)c2cc(NC(=O)c3cc(NC(=O)c4ccc(C(=O)Nc5cc(C(=O)Nc6cc(C(=O)Nc7cc(C(=O)NCCCN(C)C)n(C)c7)n(C)c6)n(C)c5)cc4)cn3C)cn2C)cn1C`, for which the EC50 was > 100 µM and the IC50 is > 100 µM.

Regarding `CC1=C(C(=O)Nc2ccccc2C)C(c2ccc(C3C(C(=O)Nc4ccccc4C)=CNC=C3C(=O)Nc3ccccc3C)cc2)C(C(=O)Nc2ccccc2C)=C(C)N1`, the outcome was inactive.

For `N#CN=C(N)NC#N`, the EC50 is > 1700 µM and the IC50 was > 1700 µM.

For the molecule `C[C@@H]1[C@@H](c2ccccc2)C12C(=O)NC(=O)NC2=O`, the EC50 is > 200 µM and the IC50 is > 200 µM.

Take `CN(C)c1nc(N(C)C)nc(N(C)CN(C)c2ccc(Cl)cc2)n1`: the EC50 is > 50.1 µM and the 50% inhibitory concentration (IC50) is > 50.1 µM.

Turning to `Cn1ncc2[nH]cnc2c1=S`, the EC50 was > 200 µM and the IC50 is 26.9 µM.

As for `COc1ccc2nc3cccc([N+](=O)[O-])c3c(NCCNCCO)c2c1`, the EC50 is > 0.2 µM and the IC50 was determined as 0.112 µM.

For the molecule `O=C(CC(=O)Nc1ccccc1F)N/N=C/c1ccccc1`, the outcome was inactive.

As to `CC1=C(C(=O)NCc2ccccc2)C(c2ccccc2[N+](=O)[O-])C(C(=O)NCc2ccccc2)=C(C)N1`, the EC50 is > 7.59 µM and the IC50 was > 7.59 µM.

`N#Cc1cccc(N2C(=O)c3ccc(C(=O)c4ccc5c(c4)C(=O)N(c4cccc(C#N)c4)C5=O)cc3C2=O)c1`: the EC50 was > 7.24 µM and the IC50 is > 7.24 µM.

As to `O=Nc1c(N=O)c(N=O)c(N=O)c(N=O)c1N=O`, the EC50 is > 20 µM and the IC50 was 2.34 µM.

On to `CCOC(=O)CC1C(O)C(=O)N(C)C1c1ccccc1` (stereo not drawn), for which the outcome was inactive.

On to `CN(C)Cc1cc(/C=C/C(=O)c2ccc(Br)cc2)cc(CN(C)C)c1O`, for which the EC50 was > 200 µM and the IC50 is 10.5 µM.

Regarding `CC(C)COC(=N)c1ccccc1C1(O)CCCCC1`, the EC50 is > 200 µM and the IC50 worked out at 117 µM.

Take `O=S(=O)(c1ccccc1)c1ccccn1`: the EC50 is 75.9 µM and the IC50 stood at 407 µM.

For the molecule `CSC1=N[C@H](c2ccccc2)CS1`, the EC50 was > 200 µM and the IC50 is > 200 µM.

Take `O=C(/C=C/c1ccc(O)c(O)c1)NCCOC(=O)/C=C/c1ccc(O)c(O)c1`: the EC50 is > 200 µM and the IC50 worked out at 8.51 µM.

As to `c1ccc(C2OCCO2)c(OCCOc2cc(OCCOc3ccccc3C3OCCO3)c(OCCOc3ccccc3C3OCCO3)cc2OCCOc2ccccc2C2OCCO2)c1`, the EC50 was > 7.94 µM and the IC50 is > 7.94 µM.

As for `Cc1cc(C)nc(NS(=O)(=O)c2ccc(Nc3c4ccccc4nc4c(C(=O)N5CCN(CCOS(C)(=O)=O)CC5)cccc34)cc2)n1`, the EC50 is > 42.7 µM and the IC50 was > 42.7 µM.

Consider `O=C(O)/C=C/c1ccc2c(c1)CC1(Cc3ccccc3C1)C2`, for which the EC50 is > 200 µM and the IC50 is 49 µM.

For `CC(=O)Nc1ccc(/C=c2\sc3nnc(CCC(=O)Nc4ccccc4Cl)n3c2=O)cc1`, the EC50 was > 28.8 µM and the IC50 is > 28.8 µM.

As to `Cc1ccc[n+](N)c1N`, the EC50 was > 1000 µM and the IC50 is > 1000 µM.

Take `Cn1c(-c2ccccc2)c(CCNC(=O)C2CCC2)c2ccccc21`: the EC50 is > 200 µM and the IC50 stood at 31.6 µM.
